From patent US20250276993A1, “PSEUDO-DISACCHARIDE COMPOUNDS” (UNIVERSITEIT LEIDEN, priority 2022, published 2025)
pIC50: −log10 of the molar value.

Tests used:
HPSE [1] = target: T1, HPSE (Homo sapiens, UniProt Q9Y251); test: HSPG digest assay, recombinant HPSE; format: biochemical
T1 sequence (Q9Y251 36-109 limits assumed): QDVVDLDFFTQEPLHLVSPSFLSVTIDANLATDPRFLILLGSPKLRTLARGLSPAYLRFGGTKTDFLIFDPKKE
T1 sequence (Q9Y251 158-543 limits assumed): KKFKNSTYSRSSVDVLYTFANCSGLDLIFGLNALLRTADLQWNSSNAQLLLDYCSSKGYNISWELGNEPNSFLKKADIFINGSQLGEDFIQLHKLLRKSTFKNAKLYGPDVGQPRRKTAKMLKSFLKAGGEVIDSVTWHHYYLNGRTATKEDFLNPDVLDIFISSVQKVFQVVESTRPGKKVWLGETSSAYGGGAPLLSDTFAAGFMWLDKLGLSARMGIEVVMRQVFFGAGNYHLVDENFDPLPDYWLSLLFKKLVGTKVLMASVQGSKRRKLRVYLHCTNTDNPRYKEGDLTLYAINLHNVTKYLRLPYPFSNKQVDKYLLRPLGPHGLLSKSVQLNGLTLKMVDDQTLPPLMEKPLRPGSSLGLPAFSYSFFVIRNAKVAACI
Description: ECM coated 35 mm culture dishes containing ^35S labelled HS were prepared as previously described (Vlodavsky et al., Curr. Protoc. Cell. Biol., Chapter 10, Unit 10, 14). Briefly, bovine corneal endothelial cells were plated at an initial density of 2×10^5 cells/ml, with 4% dextran T-40 (Sigma) included in the growth medium. Na2^35SO4 (25 μCi/ml) was added to the incubation medium on days 2 and 5 after seeding. On day 12, subendothelial ECM is exposed by dissolving the cells with PBS containing 0.5% Triton X-100 and 20 mM NH4OH, followed by four washes with PBS. For HS-degradation assays, ECM coated dishes were incubated with 200 ng recombinant HPSE in 1 mL reaction mixture (10 mM buffer Phosphate-Citrate pH 6.0, 50 mM NaCl, 1 mM DTT, 1 mM CaCl2) containing HPSE inhibitors or DMSO control. Plates were incubated at 37° C. for 5 h, then assay medium collected and applied to a 0.9×30 cm Sepharose 6B size exclusion column. The Sepharose 6B column was eluted with PBS, and ^35S radioactivity of 0.2 mL fractions quantitated using a liquid scintillation analyzer (Packard BioScience). Digest assays with U87 cell lysates were carried out in a similar fashion, except plates were incubated for 18 h with cell extracts prepared from 1×10^6 U87 glioma cells lysed by 3× freeze/thaw cycles.
The compounds of the invention were assessed against HPSE degradation of bona fide HSPGs in a physiologically relevant ECM-like environment. Cultured bovine corneal […] cells secrete a subendothelial basement membrane material rich in HSPGs, and their growth in the presence of ^35SO4^2− results in ^35S radiolabeled HSPGs (Vlodavsky et al., Curr Protoc Cell Biol, Chapter 10, Unit 10, 4, 2001). H^35S chains attached to these HSPGs are detectable after solubilization by HPSE, with enzyme inhibition leading to a corresponding reduction of signal.

HPSE [2] = target: T1, HPSE; test: cABPP Assay 1, recombinant HPSE; format: biochemical
U87 glioblastoma cells = test: Matrigel invasion assay; format: cell-based, human; conditions: 20 μM inhibitor, 4 h
Description: The Matrigel invasion assay was used to assess the effects of the compounds of the invention on cancer cell aggression. This is an in cellulo model of cell invasion through a HSPG rich basement membrane. The ability of cells to migrate through transwell inserts coated with Matrigel (an ECM secretion from Engelbreth-Holm-Swarm mouse sarcoma cells) correlates well with their in vivo invasive potential (Hall et al., Methods Mol Biol, 1070, 1-11 (2014)).
1×10^5 U87 cells in 200 μL DMEM media (without serum) were seeded onto the top chamber of a Matrigel-coated Boyden transwell filter, alongside 20 μM HPSE inhibitor (or PBS control). Cells in the upper chamber were separated by Matrigel from a lower chamber containing 600 μL DMEM, supplemented with 10% FBS. Plates were incubated at 37° C. for 4 h, before fixing cells in 4% (v/v) paraformaldehyde, and staining with 0.5% (w/v) crystal violet. Matrigel and non-migrating cells in the upper side of the Boyden filter were removed by swabbing, then invading cells on the bottom side of the transwell filter imaged for analysis. 10 randomly selected microscopic fields were recorded, and cell invasion calculated using ImageJ, by quantitating the percentage of the field stained by crystal violet. Graphs were plotted using RStudio.
The Matrigel invasion assay was used to assess the effects of the compounds of the invention on cancer cell aggression. […]

HPSE [3] = target: T1, HPSE; test: Fondaparinux cleavage assay; format: biochemical
human platelet HPSE = target: T2, human platelet HPSE (Homo sapiens, UniProt Q9Y251); test: cABPP with fluorescence quantitation, platelet lysates, HPSE; format: biochemical; conditions: read-out: IC50 platelet HPSE inhibition
T2 construct: endogenous in cells; host or cells: human platelet lysates
T2 sequence (Q9Y251 158-543 limits assumed): T1 sequence (Q9Y251 158-543 limits assumed)
T2 sequence (Q9Y251 36-109 limits assumed): T1 sequence (Q9Y251 36-109 limits assumed)
Description: ABP labelling reactions were carried out in Mcllvaine buffer (pH 5.5), 300 mM NaCl. For recombinant proteins 200 fmol of EcGH2, BpHep, AcGH79, HPSE or proHPSE was used (20 nM in 10 μl final reaction volume). For labeling cell lysates, 4-20 μg total protein was used. Labeling reactions were initiated by the addition of ABP compounds 7, 8 or 9 to a final concentration of 100 nM (unless otherwise specified), before incubation for 30 min at 37° C. with shaking. Following labeling, samples were denatured by boiling with Laemmli buffer for 5 min and resolved by SDS-PAGE. Gels were scanned using Typhoon-5 laser scanner platform (Cytiva), using the λEX 635 nm laser and 670BP30 emission filter. For competitive ABPP (cABPP) experiments, protein mixtures were preincubated with inhibitor (or buffer only control) for 1 h at 37° C. with shaking, before the addition of 7 to a final concentration of 100 nM, and subsequent incubation for 30 min at 37° C. with shaking. SDS-PAGE and analysis steps were carried out as above. For quantitative measurements, fluorescently labeled band intensities were calculated using Imagequant (Cytiva), and normalized to the corresponding band in the inhibitor free control lane. cABPP plots were prepared and analyzed using SigmaPlot 14.0 (Systat).
Further cABPP studies were undertaken using platelet lysates to provide a more physiologically realistic environment. […]

HPSE [4] = target: T1, HPSE; test: X-ray crystallography, ligand soaking of HPSE crystals; conditions: crystal soaking
Excerpt: Xray diffraction data were collected at 100 K at beamlines i03 (HPSE-2, HPSE-3, HPSE-4, EcGUSB-1, BpHep-3), i04 (AcGH79-2, BpHep-2) and i04-1 (Apo-AcGH79, AcGH79-1, AcGH79-3) of the Diamond Light Source UK. Reflections were autoprocessed using the XIA2 pipeline. Complexes were solved by directly refining against their unliganded structures where isomorphous, or else solved by molecular replacement with PHASER (search model PDB accessions: 5E98 (HPSE), 3VNY (AcGH79), 3K46 (EcGUSB), 5BWI (BpHep)). […] Ligand coordinates were built using jLigand. Diagrams were generated using PyMOL.
HPSE—Well diffracting crystals of HPSE were obtained by the sitting-drop vapor-diffusion method at 20° C. using a well solution containing 0.1 M MES pH 5.5, 0.1 M MgCl2, 17% (w/v) PEG 3350, and a protein to well solution ratio of 200 nl:500 nl. Crystals typically appeared after 1 week. Inhibitor ligand complexes were obtained by transferring HPSE crystals to drops of well solution supplemented with 25% (v/v) ethylene glycol and 1-5 mM inhibitor. Crystals were incubated with ligand for ˜2-4 h, then directly harvested and flash-cooled in LN2 for data collection.
To better understand the molecular basis of interaction between our inhibitors and their targets, we turned to X-ray crystallography, using ligand soaking to derivatize enzymes in crystallo.

inhibition of HPSE degradation of 35S-labelled HSPGs (HPSE [1]; 200 ng recombinant HPSE, pH 6.0, 5 h): robust, dose dependent inhibition
concentration giving comparable levels of inhibition (HPSE [1]; HSPG digest, recombinant HPSE): 1 µM
fold more potent than reference inhibitors #98 (10) and OGT2115 (11) (HPSE [3]): approximately 2 fold
pIC50 (human platelet HPSE): ~7.25
Compound: CC(=O)N[C@H]1[C@@H](O[C@H]2[C@H](O)[C@@H](O)[C@@H]3O[C@@H]3[C@@H]2C(=O)O)O[C@H](COS(=O)(=O)O)[C@@H](O)[C@@H]1O [Compound 3, 4-O-(2-N-acetyl-2-deoxy-6-O-sulfo-D-glucopyranosyl)-glucurono-cyclophellitol]
HPSE inhibition (abrogation of labelling by ABP 7) (HPSE [2]; 1 h preincubation at 37° C., pH 5.5, 100 nM ABP 7): inhibited HPSE at nanomolar concentrations
potency against HPSE relative to other compounds (HPSE [2]; cABPP Assay 1): greater potency against HPSE than 2 and 4
Matrigel invasion (U87 glioblastoma cells): significantly reduced Matrigel invasion
binding mode in HPSE active site cleft (HPSE [4]): covalent linkages between their pseudo-anomeric carbons and the enzyme nucleophile Glu343
